# Laboratory results from ChEMBL document CHEMBL5465560, “Selectivity Literature for EUbOPEN Chemogenomic Library” (2024).
# Columns and labels:
# [1] = biological target: T1, Mitogen-activated protein kinase kinase kinase 6 (Homo sapiens) (UniProt O95382); assay: Selectivity interaction (ActivX KiNativ screen (kinase selectivity in THP-1 cell lysates)) EUB0000639a MAP3K6; format: subcellular; conditions: lysate, at 0.01 µM
# T1 sequence (whole entry): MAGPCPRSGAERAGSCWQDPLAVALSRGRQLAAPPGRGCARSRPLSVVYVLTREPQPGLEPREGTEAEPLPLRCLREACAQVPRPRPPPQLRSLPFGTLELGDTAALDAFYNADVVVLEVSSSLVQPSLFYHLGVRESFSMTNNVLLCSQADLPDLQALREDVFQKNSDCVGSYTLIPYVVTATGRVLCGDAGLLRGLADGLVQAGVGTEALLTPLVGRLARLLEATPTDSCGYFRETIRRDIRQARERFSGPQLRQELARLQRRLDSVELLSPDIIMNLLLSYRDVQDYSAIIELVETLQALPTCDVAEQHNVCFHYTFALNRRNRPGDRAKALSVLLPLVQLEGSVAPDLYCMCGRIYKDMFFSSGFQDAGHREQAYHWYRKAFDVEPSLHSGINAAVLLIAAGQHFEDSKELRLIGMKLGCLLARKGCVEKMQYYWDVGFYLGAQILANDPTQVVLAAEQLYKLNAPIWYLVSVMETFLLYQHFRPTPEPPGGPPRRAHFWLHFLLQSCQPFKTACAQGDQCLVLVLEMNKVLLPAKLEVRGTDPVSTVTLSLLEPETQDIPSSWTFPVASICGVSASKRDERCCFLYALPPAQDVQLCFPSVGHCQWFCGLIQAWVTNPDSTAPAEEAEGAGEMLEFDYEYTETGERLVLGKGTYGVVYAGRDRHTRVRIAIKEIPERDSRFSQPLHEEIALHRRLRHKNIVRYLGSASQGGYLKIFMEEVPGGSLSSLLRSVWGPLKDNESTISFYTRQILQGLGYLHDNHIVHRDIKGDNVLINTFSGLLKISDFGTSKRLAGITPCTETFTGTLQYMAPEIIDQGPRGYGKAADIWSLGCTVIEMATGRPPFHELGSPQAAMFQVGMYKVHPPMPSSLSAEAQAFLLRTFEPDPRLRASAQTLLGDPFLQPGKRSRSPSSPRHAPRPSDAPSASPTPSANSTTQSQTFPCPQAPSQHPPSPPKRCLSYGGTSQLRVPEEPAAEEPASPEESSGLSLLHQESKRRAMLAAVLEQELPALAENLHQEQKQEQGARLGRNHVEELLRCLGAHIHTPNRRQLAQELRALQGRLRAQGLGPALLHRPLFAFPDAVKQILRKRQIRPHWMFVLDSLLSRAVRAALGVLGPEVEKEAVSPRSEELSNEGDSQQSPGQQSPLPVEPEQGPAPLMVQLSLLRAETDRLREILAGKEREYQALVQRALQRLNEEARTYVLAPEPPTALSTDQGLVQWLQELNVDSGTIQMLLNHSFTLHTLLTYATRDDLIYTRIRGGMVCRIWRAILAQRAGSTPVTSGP
# [2] = biological target: Histone-lysine N-methyltransferase ASH1L (Homo sapiens) (UniProt Q9NR48); conditions: at 10 µM
# [3] = biological target: T2, Serine/threonine-protein kinase Nek9 (Homo sapiens) (UniProt Q8TD19); assay: Selectivity interaction (ActivX KiNativ screen (ex vivo kinase selectivity in human PBMCs)) EUB0001619a NEK9; format: cell-based; conditions: PBMC, at 1 µM
# T2 sequence (whole entry): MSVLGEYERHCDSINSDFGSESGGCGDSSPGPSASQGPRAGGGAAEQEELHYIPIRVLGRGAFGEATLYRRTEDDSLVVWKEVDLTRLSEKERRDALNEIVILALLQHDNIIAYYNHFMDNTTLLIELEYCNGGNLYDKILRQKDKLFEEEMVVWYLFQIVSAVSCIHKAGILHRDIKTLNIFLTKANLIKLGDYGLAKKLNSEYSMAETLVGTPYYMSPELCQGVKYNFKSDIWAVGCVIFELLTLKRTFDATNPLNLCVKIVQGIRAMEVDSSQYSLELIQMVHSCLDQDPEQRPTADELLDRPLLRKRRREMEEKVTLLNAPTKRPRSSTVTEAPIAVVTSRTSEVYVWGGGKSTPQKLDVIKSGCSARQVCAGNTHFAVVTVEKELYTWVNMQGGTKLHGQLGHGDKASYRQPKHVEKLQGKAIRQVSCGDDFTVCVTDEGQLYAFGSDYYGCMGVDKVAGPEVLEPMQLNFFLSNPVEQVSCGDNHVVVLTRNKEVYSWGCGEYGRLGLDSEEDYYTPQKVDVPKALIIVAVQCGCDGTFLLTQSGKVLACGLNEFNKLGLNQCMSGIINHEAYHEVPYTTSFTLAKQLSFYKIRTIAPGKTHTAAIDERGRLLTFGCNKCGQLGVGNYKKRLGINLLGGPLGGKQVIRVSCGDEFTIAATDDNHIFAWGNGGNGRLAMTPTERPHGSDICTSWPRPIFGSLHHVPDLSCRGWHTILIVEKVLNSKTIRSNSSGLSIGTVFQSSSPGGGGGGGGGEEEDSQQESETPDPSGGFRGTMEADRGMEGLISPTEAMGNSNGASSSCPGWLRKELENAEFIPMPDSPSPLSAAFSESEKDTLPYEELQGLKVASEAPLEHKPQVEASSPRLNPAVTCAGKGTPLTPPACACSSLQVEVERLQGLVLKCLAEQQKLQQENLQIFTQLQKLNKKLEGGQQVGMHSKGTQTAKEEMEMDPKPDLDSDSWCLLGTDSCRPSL
structure (smiles),measurement,setting,value
CC[C@@H]1[C@H](F)C(=O)N[C@@H]1COc1nccc2cc(C(N)=O)c(OC)cc12 [ZIMLOVISERTIB],% of inhibition,[1],3.1%
CNCCN1CCC(c2cc(CN(C)C(=O)c3cccc(Oc4ccccc4)c3)ccn2)CC1,% activity,[2],> 90%
N#Cc1cccc(-c2c[nH]c3ncnc(N4CCOCC4)c23)c1,% of inhibition,[3],3%
